# Measured values from patent US6680025B2, “Device and method for photoactivation” (Cerus Corporation, priority 1989, dated 2004).
# What was measured:
# T4 polymerase = experiment: Primer extension on monoadducted 71-mer, T4 polymerase; assay type: biochemical; conditions: 37° C., 0, 5 or 15 minutes
# Text: The sequences that are presented in FIG. 26 describe several oligonucleotides that are used in the synthesis of either a normal 71-mer or the identical 71-mer containing a site-specifically placed psoralen or isopsoralen monoadduct. The 71-mer is a sub-sequence of the Human Immunodeficiency Virus (HIV) sequence. (An HIV DNA system is described in a co-pending application, Serial No. 225,725.) SK-39 is a primer oligonucleotide that is complementary to the 3′ end of the 71-mers. This primer oligonucleotide can be extended on the 71-mer template to make a complementary strand of the 71-mer.
# Preparation of 71-mers which contain site-specific monoadducts involves 1) preparation of different 15-mer monoadducts from the same unmodified 15-mer (HRI-42), and 2) ligation of the different 15-mer monoadducts to the same 56-mer “extender oligonucleotide” (HRI 102) using a 25-mer oligonucleotide (HRI-45) as a splint. The arrows in FIG. 27 indicate the direction of synthesis, while the monoadduct is indicated by a short line that is perpendicular to the oligomer. While each of the 71-mer monoadducts contains the adduct at a base position that is greater than 56 bases from the 5′ end, the precise position of the monoadduct is not meant to be indicated.
# To prepare the 15-mer adducts, the 15-mer was incubated with a complementary 10-mer along with psoralen or isopsoralen under hybridization conditions. The mixture was then irradiated to provide the monoadducted 15-mer. While the invention is not dependent on knowing the precise mechanism of coupling, it has generally been believed that the 10-mer directs the isopsoralen to a single TpA site within the double-stranded helix formed by the 10-mer/15-mer hybrid. […]
# To provide highly purified 71-mers which contain a single monoadduct, it was necessary to provide highly purified 15-mer monoadduct prior to the ligation step. […] Separation of 15-mer monoadduct from unmodified 15-mer was readily accomplished by PAGE (while the same technique is not effective for separation of the corresponding unmodified 71-mer and monoadducted 71-mer sequences). […]
# Taq I DNA polymerase = experiment: Primer extension on site-specific monoadducted 71-mer, Taq polymerase; assay type: biochemical, Thermus aquaticus; conditions: for Taq polymerase extension on 71-mer monoadduct template: 55° C., single extension
# Method: In this experiment, monoadducted 71-mers (as well as unmodified 71-mers) were used in template-dependent enzymatic extension. AMIP, AMDMIP, and MIP 71-mer monoadducts were made as in Example 42. Extension was carried out as in Example 43 except that in this experiment, Taq I DNA polymerase, a thermostable DNA polymerase isolated from Thermus aquaticus (Stratagene, Inc., La Jolla, Calif.) was assessed for its ability to read past isopsoralens.
# The reaction mixture was in 80 μl total volume and comprised 1×Taq buffer, 200 μM each of dNTP's, 0.05 units of Taq per μl of reaction volume; 1×10^−9 M in 71-mer MA; 1×10^−8 M in ^32P-labelled SK-39. Each reaction was set up with everything except Taq polymerase. The samples were initially heated to 95° C. for 5 mins, then incubated at 55° C. for 3 mins. The extension reaction was initiated by addition of Tas polymerase. At the indicated time points (0.5, 1.0, 5.0 mins), 20 μl of the reaction mix was removed to a tube containing 1 μl of 0.5 M EDTA to stop the reaction. All products were analyzed on a 20% polyacrylamide, 7 M urea gel followed by autoradiography.
# This experiment investigated whether blocking of Tag polymerase by monoadducts is complete or whether monoadducts can be bypassed by the enzyme. In order to view the process of bypass syrthesis, it is necessary to cycle the extension reaction of the primer with the 71-mer templates. Cycling in this case consists of mixing the primer with the 71-mer template, adding Taq polymerase and appropriate reagents, extending, heating to induce strand separation, reannealing of the primer to the 71-mer template, extending again, and subsequent stand separation. This process can be repeated as necessary. During this process, only the complement of the 71-mer template is being synthesized. It is accumulating in a linear fashion with the number of thermal cycles (in contrast to PCR where both strands are being synthesized and accumulate geometrically).
# The templates and reaction conditions were as in Example 44 above except that three samples were used for each monoadduct and each sample was tested under different conditions:
# Samples (1): one sample for each monoadduct was used to carry out extension at 55° C. as in Example 43;
# Samples (2): one sample for each monoadduct was used to carry out extension by the following series of steps: denaturing at 95° C.; incubating for 30 seconds at 55° C.; adding Taq polymerase for 3 minutes at 55° C.; cooling the reaction for 1 minute at 7° C.; stopping the reaction with EDTA for one minute at 95° C.
# Samples (3): one sample for each monoadduct was used to carry out extension by repeating the following series of steps nine times: denaturing at 95° C.; incubating for 30 seconds at 55° C.; adding Taq polymerase for 3 minutes at 55° C.; cooling the reaction for 1 minute at 7° C. At the end, the reaction is stopped with EDTA for one minute at 95° C.
# To investigate this question further, a new 5-MIP monoadducted 71-mer was prepared by repurification of the HPLC purified 5-MIP ronoadducted 15-mer by PAGE. In this way, more of the non-monoadducted 15-mer was removed prior to ligation. The purified 71-mer was then used as template in an extension experiment as described in Example 45. After 10 cycles, there was still evidence of extension product (FIG. 34).
# Monoadducted 71-mer was constructed as described, but for HMT. Extension was carried out and analyzed as before on PAGE. […] Full length 71-mer is not made and a shorter strand corresponding to the position of the HMT adduct was made.
# [1] = PAGE-repurified monoadducted 71-mer, after 10 cycles
structure (smiles),measurement,setting,value
"NCc1cc2occc2c2oc(=O)ccc12 [AMIP, 5-Aminomethylisopsoralen]",block of primer extension by 71-mer monoadduct,T4 polymerase,complete stops
same,Taq polymerase extension on 71-mer monoadduct template,Taq I DNA polymerase,stops at positions that are shorter than the full length 71-mer product
"Cc1oc2ccc3c(C)cc(=O)oc3c2c1CN [AMDMIP, 4′-Aminomethyl-4,5′-dimethylisopsoralen]",block of primer extension by 71-mer monoadduct,T4 polymerase,complete stop
same,Taq polymerase extension on 71-mer monoadduct template,Taq I DNA polymerase,stops at positions that are shorter than the full length 71-mer product
"Cc1cc2occc2c2oc(=O)ccc12 [MIP, 5-Methylisopsoralen]",block of primer extension by 71-mer monoadduct,T4 polymerase,complete stops
same,Taq polymerase extension on 71-mer monoadduct template,Taq I DNA polymerase,stops at positions that are shorter than the full length 71-mer product
same,full length extension product as share of total extension products,Taq I DNA polymerase; [1],2.3%
same,truncated extension products as share of total,Taq I DNA polymerase; [1],97.7%
